Broadly, the IC50 is the concentration needed to halve the response being measured. Lower therefore signals inhibition by little substance. For orientation: inhibition means the change of the read-out against control, counted positive when it falls. Read a high inhibition as a response far below the control.

Assay [1] addresses Intestinal-type alkaline phosphatase (Bos taurus, UniProt P19111). Kind of assay: Inhibition of calf intestinal alkaline phosphatase using CDP-star as substrate preincubated for 5 to 7 mins followed by substrate addition measured after 15 mins by spectrophotometric method.
Assay [2] has as its target Intestinal-type alkaline phosphatase (Bos taurus) (UniProt P19111). Kind of assay: Potency index, ratio of L-phenylalanine IC50 to test compound IC50 for calf intestinal alkaline phosphatase.
Assay [3] has as its target T1, Alkaline phosphatase, tissue-nonspecific isozyme (Bos taurus) (UniProt P09487).
T1 sequence (whole entry): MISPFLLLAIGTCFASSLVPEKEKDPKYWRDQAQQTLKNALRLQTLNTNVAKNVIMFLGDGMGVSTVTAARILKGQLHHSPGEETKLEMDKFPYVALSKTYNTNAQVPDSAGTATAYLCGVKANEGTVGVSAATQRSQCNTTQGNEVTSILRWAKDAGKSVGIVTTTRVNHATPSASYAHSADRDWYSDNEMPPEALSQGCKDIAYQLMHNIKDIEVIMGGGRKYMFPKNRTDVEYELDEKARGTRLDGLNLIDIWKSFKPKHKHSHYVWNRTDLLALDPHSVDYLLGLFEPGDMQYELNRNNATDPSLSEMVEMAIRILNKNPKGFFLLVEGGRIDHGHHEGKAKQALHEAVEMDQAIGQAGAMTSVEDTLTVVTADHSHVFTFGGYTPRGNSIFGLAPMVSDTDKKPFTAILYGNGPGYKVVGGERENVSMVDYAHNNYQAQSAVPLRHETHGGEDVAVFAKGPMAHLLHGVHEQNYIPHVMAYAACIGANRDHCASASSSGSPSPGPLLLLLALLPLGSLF
Kind of assay: Inhibition of bovine TNAP at 0.2 mM using CDP-star as substrate preincubated for 5 to 7 mins followed by substrate addition measured after 15 mins by spectrophotometric method.

In assay [4] the target is T2, Alkaline phosphatase, tissue-nonspecific isozyme (Bos taurus, UniProt P09487).
T2 sequence (P09487 whole entry): T1 sequence (whole entry)
Kind of assay: Inhibition of bovine TNAP using CDP-star as substrate preincubated for 5 to 7 mins followed by substrate addition measured after 15 mins by spectrophotometric method.

Assay [5] has as its target Intestinal-type alkaline phosphatase (Bos taurus) (UniProt P19111). Kind of assay: Inhibition of calf intestinal alkaline phosphatase at 0.2 mM using CDP-star as substrate preincubated for 5 to 7 mins followed by substrate addition measured after 15 mins by spectrophotometric method.

Chain of Intestinal-type alkaline phosphatase (P19111 whole entry): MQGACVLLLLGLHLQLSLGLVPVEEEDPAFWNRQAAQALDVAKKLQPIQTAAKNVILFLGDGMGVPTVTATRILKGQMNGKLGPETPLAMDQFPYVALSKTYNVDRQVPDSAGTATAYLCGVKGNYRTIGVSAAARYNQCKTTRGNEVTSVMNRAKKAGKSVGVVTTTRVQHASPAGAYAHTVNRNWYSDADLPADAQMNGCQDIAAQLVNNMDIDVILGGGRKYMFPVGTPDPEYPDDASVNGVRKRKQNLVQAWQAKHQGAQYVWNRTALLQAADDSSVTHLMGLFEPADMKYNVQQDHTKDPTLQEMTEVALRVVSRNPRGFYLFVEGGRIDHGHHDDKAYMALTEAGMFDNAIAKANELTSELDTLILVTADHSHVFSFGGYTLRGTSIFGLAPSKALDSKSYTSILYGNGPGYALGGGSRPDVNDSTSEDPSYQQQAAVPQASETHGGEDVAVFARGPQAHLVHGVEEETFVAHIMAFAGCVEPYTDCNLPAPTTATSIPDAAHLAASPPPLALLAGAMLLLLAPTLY
Chain of Intestinal-type alkaline phosphatase (Bos taurus) (P19111 20-506 limits assumed): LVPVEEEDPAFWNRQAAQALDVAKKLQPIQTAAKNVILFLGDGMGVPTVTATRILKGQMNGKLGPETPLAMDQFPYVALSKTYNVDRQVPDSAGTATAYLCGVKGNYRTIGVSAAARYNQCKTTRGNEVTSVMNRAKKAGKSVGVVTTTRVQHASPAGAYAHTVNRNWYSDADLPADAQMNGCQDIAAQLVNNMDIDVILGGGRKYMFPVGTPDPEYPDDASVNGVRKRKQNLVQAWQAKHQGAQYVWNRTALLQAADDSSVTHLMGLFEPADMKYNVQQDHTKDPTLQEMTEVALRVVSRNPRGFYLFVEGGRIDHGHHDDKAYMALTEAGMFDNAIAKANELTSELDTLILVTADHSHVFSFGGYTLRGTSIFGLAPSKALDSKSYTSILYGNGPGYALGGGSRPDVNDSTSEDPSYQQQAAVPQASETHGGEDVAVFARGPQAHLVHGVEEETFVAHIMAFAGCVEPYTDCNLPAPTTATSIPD

For `COc1ccc(Cn2c(-c3ccc(C)cc3)c(-c3ccc(C)cc3)c(=O)c3cc([N+](=O)[O-])ccc32)cc1`, in assay [1], half-maximal inhibition (IC50) was put at 2.92 µM. In assay [2], the Ratio IC50 is 40. The inhibition in assay [3] amounted to 46.1%.
In the case of `Cc1ccc(-c2cc(=O)c3cc(N)ccc3[nH]2)cc1`, the figures for the IC50 in assay [1] and in assay [4] were 16.2 µM and 19.4 µM, respectively.
Take `CCCCCc1c(Br)c(=O)c2cc([N+](=O)[O-])ccc2n1Cc1ccc(OC)cc1`: the IC50 in assay [1] was 122 µM; in assay [4], 9.51 µM.
On to `CCCCCc1cc(=O)c2cc([N+](=O)[O-])ccc2[nH]1`, for which the IC50 in assay [1] was 16.7 µM; in assay [4], 44.8 µM.
For `COc1ccc(Cn2c(-c3ccc(C)cc3)c(-c3cc(C)cc(C)c3)c(=O)c3cc([N+](=O)[O-])ccc32)cc1`, the IC50 in assay [1] came out at 28.7 µM; in assay [4], 4.74 µM.
In turn, `COc1ccc(Cn2c(-c3ccc(C)cc3)c(-c3ccc(OC)cc3)c(=O)c3cc([N+](=O)[O-])ccc32)cc1` registered an IC50 in assay [1] of 2.04 µM. Moreover, the Ratio IC50 in assay [2] is 40. For the same compound, in assay [3], the inhibition stood at 46.8%.
As to `CCCCCc1[nH]c2ccc([N+](=O)[O-])cc2c(=O)c1Br`, the results for the IC50 in assay [1] and in assay [4] were 3.06 µM and 17.2 µM, respectively.
In the case of `COc1ccc(-c2c(-c3ccc(C)cc3)[nH]c3ccc(N)cc3c2=O)cc1`, the IC50 was found to be 1.06 µM in assay [1] and 14.8 µM in assay [4].
Compound `COc1ccc(Cn2c(-c3ccc(C)cc3)cc(=O)c3cc([N+](=O)[O-])ccc32)cc1` returned an IC50 in assay [4] of 133 µM. The inhibition in assay [5] worked out at 48.6%.
The like results for `CCCCCc1c(-c2ccc(C(F)(F)F)cc2)c(=O)c2cc([N+](=O)[O-])ccc2n1Cc1ccc(OC)cc1` were, in that order, 38.5 µM and 48.6%.
For `COc1ccc(Cn2c(-c3ccc(C)cc3)c(Br)c(=O)c3cc([N+](=O)[O-])ccc32)cc1`, the IC50 stood at 2.43 µM in assay [1] and 4.22 µM in assay [4].
Take `COc1ccc(Cn2c(-c3ccc(C)cc3)c(-c3ccccc3C=O)c(=O)c3cc([N+](=O)[O-])ccc32)cc1`: the figures for the IC50 in assay [1] and in assay [4] were 192 µM and 2.35 µM, respectively.
In the case of `COc1ccc(Cn2c(-c3ccc(C)cc3)c(-c3ccc(C(F)(F)F)cc3)c(=O)c3cc([N+](=O)[O-])ccc32)cc1`, the IC50 was 8.34 µM in assay [1] and 6.19 µM in assay [4].
For `Cc1ccc(-c2cc(=O)c3cc([N+](=O)[O-])ccc3[nH]2)cc1`, the values for the IC50 in assay [1] and in assay [4] were 6.25 µM and 2.56 µM, respectively.
For `CCc1ccc(-c2c(-c3ccc(C)cc3)n(Cc3ccc(OC)cc3)c3ccc([N+](=O)[O-])cc3c2=O)cc1`, the IC50 in assay [1] was 5.75 µM; in assay [4], 1.66 µM.
In the case of `COc1ccc(Cn2c(-c3ccc(C)cc3)c(C(F)(F)F)c(=O)c3cc([N+](=O)[O-])ccc32)cc1`, the figures for the IC50 in assay [1] and in assay [4] were 4.58 µM and 4.53 µM, respectively.
`Cc1ccc(-c2[nH]c3ccc([N+](=O)[O-])cc3c(=O)c2-c2ccc(C(F)(F)F)cc2)cc1`: the IC50 in assay [1] came out at 4.38 µM; in assay [4], 2.69 µM.
Consider `Cc1ccc(-c2c(Br)c(=O)c3cc([N+](=O)[O-])ccc3n2C(C)c2ccccc2)cc1` (stereo not drawn), for which the IC50 was 2.47 µM in assay [1] and 1.34 µM in assay [4].
For the compound `COc1ccc(C(C)n2c(-c3ccc(C)cc3)cc(=O)c3cc([N+](=O)[O-])ccc32)cc1` (stereo not drawn), the IC50 in assay [1] stood at 4.75 µM; in assay [4] it was 17.9 µM.
For the compound `CCCCCc1cc(=O)c2cc([N+](=O)[O-])ccc2n1Cc1ccc(OC)cc1`, the figures for the IC50 in assay [1] and in assay [4] were 1.38 µM and 1.51 µM, respectively.
On to `Cc1ccc(-c2[nH]c3ccc([N+](=O)[O-])cc3c(=O)c2Br)cc1`, for which the IC50 stood at 12.1 µM in assay [1] and 6.47 µM in assay [4].
Take `COc1ccc(Cn2c(-c3ccc(C)cc3)c(-c3ccc(C)cc3)c(=O)c3cc(N)ccc32)cc1`: the IC50 in assay [4] came out at 15.1 µM. The compound also registered an inhibition in assay [5] of 38.7%.
`Cc1ccc(-c2[nH]c3ccc(NC(=O)C(F)(F)F)cc3c(=O)c2-c2ccc(C)cc2)cc1`: the IC50 is 1.67 µM in assay [1] and 6.02 µM in assay [4].

Values taken from ChEMBL document CHEMBL4002568, “Synthesis, alkaline phosphatase inhibition studies and molecular docking of novel derivatives of 4-quinolones” (Eur J Med Chem, 2017).
